These are literature values, as cited in patent US20050064031A1, “Combination contraceptive, kits that contain the latter, and a method that uses the latter” (priority 1995, published 2005).

In this series the test system is breast tumors. The note with it: rats treated before the administration of a carcinogen.

In the case of `CN(C)c1ccc([C@H]2C[C@]3(C)[C@@H](CC[C@]3(O)CCCO)[C@@H]3CCC4=CC(=O)CCC4=C32)cc1` [onapristone], the “development of breast tumors” value is “can be inhibited”.
